Data from PMC9743148 (Annals of oncology : official journal of the European …, 2020).

System: patients with advanced solid tumors
Experiment: Treatment-emergent adverse events
Type: in vivo, human
[1] = Combined t.i.w. cohorts (n = 42)

C=CC(=O)N1CC[C@H](n2nc(C#Cc3cc(OC)cc(OC)c3)c3c(N)ncnc32)C1 [futibatinib]
4 (10) n (%): AST increased TEAE, Any grade [1]
41 (93) n (%): Any treatment-related AE, Any grade (Combined q.d. cohorts (n = 44))
44 (100) n (%): Any TEAE, Any grade (Combined q.d. cohorts (n = 44))
9 (20) n (%): Anemia TEAE, Any grade (Combined q.d. cohorts (n = 44)) | Asthenia TEAE, Any grade (Combined q.d. cohorts (n = 44)) | Diarrhea TEAE, Grade 1 (Combined q.d. cohorts (n = 44)) | Dosing delay/interruption because of TEAE, Grade 2 (Combined q.d. cohorts (n = 44)) | Stomatitis TEAE, Any grade (Combined q.d. cohorts (n = 44))
1 (2) n (%): Abdominal pain TEAE, Grade 1 (Combined q.d. cohorts (n = 44)) | Abdominal pain TEAE, Grade 3 (Combined q.d. cohorts (n = 44)) | Anemia TEAE, Grade 1 (Combined q.d. cohorts (n = 44)) | Any treatment-related AE, Grade 4 (Combined q.d. cohorts (n = 44)) | Constipation TEAE, Grade 3 (Combined q.d. cohorts (n = 44)) | Diarrhea TEAE, Grade 3 (Combined q.d. cohorts (n = 44)) | Dose reduction because of TEAE, Grade 2 (Combined q.d. cohorts (n = 44)) | Dose reduction because of TEAE, Grade 4 (Combined q.d. cohorts (n = 44)) | Dosing delay/interruption because of TEAE, Grade 1 (Combined q.d. cohorts (n = 44)) | Dry eye TEAE, Grade 2 (Combined q.d. cohorts (n = 44)) | Dry mouth TEAE, Grade 2 (Combined q.d. cohorts (n = 44)) | Fatigue TEAE, Grade 3 (Combined q.d. cohorts (n = 44)) | Headache TEAE, Grade 2 (Combined q.d. cohorts (n = 44)) | Headache TEAE, Grade 3 (Combined q.d. cohorts (n = 44)) | Onycholysis TEAE, Any grade (Combined q.d. cohorts (n = 44)) | Onycholysis TEAE, Grade 1 (Combined q.d. cohorts (n = 44)) | Pyrexia TEAE, Grade 2 (Combined q.d. cohorts (n = 44)) | Pyrexia TEAE, Grade 3 (Combined q.d. cohorts (n = 44)) | Rash TEAE, Any grade (Combined q.d. cohorts (n = 44)) | Rash TEAE, Grade 1 (Combined q.d. cohorts (n = 44)) | Stomatitis TEAE, Grade 3 (Combined q.d. cohorts (n = 44)) | Treatment discontinuation because of TEAE, Grade 2 (Combined q.d. cohorts (n = 44)) | Treatment discontinuation because of TEAE, Grade 3 (Combined q.d. cohorts (n = 44)) | ALT increased TEAE, Grade 2 [1] | ALT increased TEAE, Grade 3 [1]
11 (25) n (%): ALT increased TEAE, Any grade (Combined q.d. cohorts (n = 44)) | AST increased TEAE, Any grade (Combined q.d. cohorts (n = 44)) | Any TEAE, Grade 2 (Combined q.d. cohorts (n = 44)) | Any treatment-related AE, Grade 2 (Combined q.d. cohorts (n = 44)) | Dry mouth TEAE, Any grade (Combined q.d. cohorts (n = 44)) | Vomiting TEAE, Any grade (Combined q.d. cohorts (n = 44))
13 (30) n (%): Any treatment-related AE, Grade 1 (Combined q.d. cohorts (n = 44)) | Constipation TEAE, Grade 1 (Combined q.d. cohorts (n = 44)) | Hyperphosphatemia TEAE, Grade 1 (Combined q.d. cohorts (n = 44)) | Nausea TEAE, Any grade (Combined q.d. cohorts (n = 44))
7 (16) n (%): Decreased appetite TEAE, Any grade (Combined q.d. cohorts (n = 44)) | Fatigue TEAE, Any grade (Combined q.d. cohorts (n = 44)) | Hyperphosphatemia TEAE, grade 3 (Combined q.d. cohorts (n = 44))
2 (5) n (%): AST increased TEAE, Grade 3 (Combined q.d. cohorts (n = 44)) | Anemia TEAE, Grade 3 (Combined q.d. cohorts (n = 44)) | Back pain TEAE, Grade 2 (Combined q.d. cohorts (n = 44)) | Decreased appetite TEAE, Grade 2 (Combined q.d. cohorts (n = 44)) | Headache TEAE, Any grade (Combined q.d. cohorts (n = 44)) | Hyponatremia TEAE, Any grade (Combined q.d. cohorts (n = 44)) | Hyponatremia TEAE, Grade 3 (Combined q.d. cohorts (n = 44)) | Nausea TEAE, Grade 3 (Combined q.d. cohorts (n = 44)) | Stomatitis TEAE, Grade 2 (Combined q.d. cohorts (n = 44)) | Treatment discontinuation because of TEAE, Any grade (Combined q.d. cohorts (n = 44)) | Vomiting TEAE, Grade 3 (Combined q.d. cohorts (n = 44))
15 (34) n (%): Diarrhea TEAE, Any grade (Combined q.d. cohorts (n = 44))
26 (59) n (%): Dosing delay/interruption because of TEAE, Any grade (Combined q.d. cohorts (n = 44))
8 (18) n (%): Dose reduction because of TEAE, Any grade (Combined q.d. cohorts (n = 44)) | Nausea TEAE, Grade 1 (Combined q.d. cohorts (n = 44))
0 (0) n (%): ALT increased TEAE, Grade 4 (Combined q.d. cohorts (n = 44)) | AST increased TEAE, Grade 4 (Combined q.d. cohorts (n = 44)) | Abdominal pain TEAE, Grade 4 (Combined q.d. cohorts (n = 44)) | Alopecia TEAE, Grade 2 (Combined q.d. cohorts (n = 44)) | Alopecia TEAE, Grade 3 (Combined q.d. cohorts (n = 44)) | Alopecia TEAE, Grade 4 (Combined q.d. cohorts (n = 44)) | Anemia TEAE, Grade 4 (Combined q.d. cohorts (n = 44)) | Asthenia TEAE, Grade 3 (Combined q.d. cohorts (n = 44)) | Asthenia TEAE, Grade 4 (Combined q.d. cohorts (n = 44)) | Back pain TEAE, Grade 3 (Combined q.d. cohorts (n = 44)) | Back pain TEAE, Grade 4 (Combined q.d. cohorts (n = 44)) | Constipation TEAE, Grade 4 (Combined q.d. cohorts (n = 44)) | Cough TEAE, Grade 2 (Combined q.d. cohorts (n = 44)) | Cough TEAE, Grade 3 (Combined q.d. cohorts (n = 44)) | Cough TEAE, Grade 4 (Combined q.d. cohorts (n = 44)) | Decreased appetite TEAE, Grade 3 (Combined q.d. cohorts (n = 44)) | Decreased appetite TEAE, Grade 4 (Combined q.d. cohorts (n = 44)) | Diarrhea TEAE, Grade 4 (Combined q.d. cohorts (n = 44)) | Dose reduction because of TEAE, Grade 1 (Combined q.d. cohorts (n = 44)) | Dosing delay/interruption because of TEAE, Grade 4 (Combined q.d. cohorts (n = 44)) | Dry eye TEAE, Grade 3 (Combined q.d. cohorts (n = 44)) | Dry eye TEAE, Grade 4 (Combined q.d. cohorts (n = 44)) | Dry mouth TEAE, Grade 3 (Combined q.d. cohorts (n = 44)) | Dry mouth TEAE, Grade 4 (Combined q.d. cohorts (n = 44)) | Dry skin TEAE, Grade 2 (Combined q.d. cohorts (n = 44)) | Dry skin TEAE, Grade 3 (Combined q.d. cohorts (n = 44)) | Dry skin TEAE, Grade 4 (Combined q.d. cohorts (n = 44)) | Fatigue TEAE, Grade 4 (Combined q.d. cohorts (n = 44)) | Headache TEAE, Grade 1 (Combined q.d. cohorts (n = 44)) | Headache TEAE, Grade 4 (Combined q.d. cohorts (n = 44)) | Hypercalcemia TEAE, Any grade (Combined q.d. cohorts (n = 44)) | Hypercalcemia TEAE, Grade 1 (Combined q.d. cohorts (n = 44)) | Hypercalcemia TEAE, Grade 2 (Combined q.d. cohorts (n = 44)) | Hypercalcemia TEAE, Grade 3 (Combined q.d. cohorts (n = 44)) | Hypercalcemia TEAE, Grade 4 (Combined q.d. cohorts (n = 44)) | Hyperphosphatemia TEAE, Grade 4 (Combined q.d. cohorts (n = 44)) | Hypomagnesemia TEAE, Grade 2 (Combined q.d. cohorts (n = 44)) | Hypomagnesemia TEAE, Grade 3 (Combined q.d. cohorts (n = 44)) | Hypomagnesemia TEAE, Grade 4 (Combined q.d. cohorts (n = 44)) | Hyponatremia TEAE, Grade 1 (Combined q.d. cohorts (n = 44)) | Hyponatremia TEAE, Grade 2 (Combined q.d. cohorts (n = 44)) | Hyponatremia TEAE, Grade 4 (Combined q.d. cohorts (n = 44)) | Nausea TEAE, Grade 4 (Combined q.d. cohorts (n = 44)) | Onycholysis TEAE, Grade 2 (Combined q.d. cohorts (n = 44)) | Onycholysis TEAE, Grade 3 (Combined q.d. cohorts (n = 44)) | Onycholysis TEAE, Grade 4 (Combined q.d. cohorts (n = 44)) | Pyrexia TEAE, Grade 4 (Combined q.d. cohorts (n = 44)) | Rash TEAE, Grade 2 (Combined q.d. cohorts (n = 44)) | Rash TEAE, Grade 3 (Combined q.d. cohorts (n = 44)) | Rash TEAE, Grade 4 (Combined q.d. cohorts (n = 44)) | Stomatitis TEAE, Grade 4 (Combined q.d. cohorts (n = 44)) | Treatment discontinuation because of TEAE, Grade 1 (Combined q.d. cohorts (n = 44)) | Treatment discontinuation because of TEAE, Grade 4 (Combined q.d. cohorts (n = 44)) | Urinary tract infection TEAE, Any grade (Combined q.d. cohorts (n = 44)) | Urinary tract infection TEAE, Grade 1 (Combined q.d. cohorts (n = 44)) | Urinary tract infection TEAE, Grade 2 (Combined q.d. cohorts (n = 44)) | Urinary tract infection TEAE, Grade 3 (Combined q.d. cohorts (n = 44)) | Urinary tract infection TEAE, Grade 4 (Combined q.d. cohorts (n = 44)) | Vomiting TEAE, Grade 4 (Combined q.d. cohorts (n = 44)) | ALT increased TEAE, Grade 4 [1]
5 (11) n (%): AST increased TEAE, Grade 2 (Combined q.d. cohorts (n = 44)) | Any TEAE, Grade 1 (Combined q.d. cohorts (n = 44)) | Back pain TEAE, Any grade (Combined q.d. cohorts (n = 44)) | Cough TEAE, Any grade (Combined q.d. cohorts (n = 44)) | Cough TEAE, Grade 1 (Combined q.d. cohorts (n = 44)) | Decreased appetite TEAE, Grade 1 (Combined q.d. cohorts (n = 44)) | Diarrhea TEAE, Grade 2 (Combined q.d. cohorts (n = 44)) | Dry eye TEAE, Any grade (Combined q.d. cohorts (n = 44)) | Pyrexia TEAE, Any grade (Combined q.d. cohorts (n = 44))
6 (14) n (%): Abdominal pain TEAE, Any grade (Combined q.d. cohorts (n = 44)) | Alopecia TEAE, Any grade (Combined q.d. cohorts (n = 44)) | Alopecia TEAE, Grade 1 (Combined q.d. cohorts (n = 44)) | Anemia TEAE, Grade 2 (Combined q.d. cohorts (n = 44)) | Asthenia TEAE, Grade 2 (Combined q.d. cohorts (n = 44)) | Dose reduction because of TEAE, Grade 3 (Combined q.d. cohorts (n = 44)) | Dry skin TEAE, Any grade (Combined q.d. cohorts (n = 44)) | Dry skin TEAE, Grade 1 (Combined q.d. cohorts (n = 44)) | Stomatitis TEAE, Grade 1 (Combined q.d. cohorts (n = 44)) | Vomiting TEAE, Grade 1 (Combined q.d. cohorts (n = 44))
30 (68) n (%): Hyperphosphatemia TEAE, Any grade (Combined q.d. cohorts (n = 44))
4 (9) n (%): ALT increased TEAE, Grade 1 (Combined q.d. cohorts (n = 44)) | ALT increased TEAE, Grade 2 (Combined q.d. cohorts (n = 44)) | AST increased TEAE, Grade 1 (Combined q.d. cohorts (n = 44)) | Abdominal pain TEAE, Grade 2 (Combined q.d. cohorts (n = 44)) | Constipation TEAE, Grade 2 (Combined q.d. cohorts (n = 44)) | Dry eye TEAE, Grade 1 (Combined q.d. cohorts (n = 44))
16 (36) n (%): Any treatment-related AE, Grade 3 (Combined q.d. cohorts (n = 44)) | Dosing delay/interruption because of TEAE, Grade 3 (Combined q.d. cohorts (n = 44))
3 (7) n (%): ALT increased TEAE, Grade 3 (Combined q.d. cohorts (n = 44)) | Any TEAE, Grade 4 (Combined q.d. cohorts (n = 44)) | Asthenia TEAE, Grade 1 (Combined q.d. cohorts (n = 44)) | Back pain TEAE, Grade 1 (Combined q.d. cohorts (n = 44)) | Fatigue TEAE, Grade 1 (Combined q.d. cohorts (n = 44)) | Fatigue TEAE, Grade 2 (Combined q.d. cohorts (n = 44)) | Hypomagnesemia TEAE, Any grade (Combined q.d. cohorts (n = 44)) | Hypomagnesemia TEAE, Grade 1 (Combined q.d. cohorts (n = 44)) | Nausea TEAE, Grade 2 (Combined q.d. cohorts (n = 44)) | Pyrexia TEAE, Grade 1 (Combined q.d. cohorts (n = 44)) | Vomiting TEAE, Grade 2 (Combined q.d. cohorts (n = 44)) | ALT increased TEAE, Grade 1 [1]
10 (23) n (%): Dry mouth TEAE, Grade 1 (Combined q.d. cohorts (n = 44)) | Hyperphosphatemia TEAE, Grade 2 (Combined q.d. cohorts (n = 44))
18 (41) n (%): Constipation TEAE, Any grade (Combined q.d. cohorts (n = 44))
5 (12) n (%): ALT increased TEAE, Any grade [1]
21 (48) n (%): Any TEAE, Grade 3 (Combined q.d. cohorts (n = 44))
